Read-outs that look alike come from different tables or passages of the source.
Assays:
[1] = system: protein synthesis in Leishmania tarentolae cell extract; experiment: Leishmania tarentolae in vitro translation (eGFP expression in cell extract); type: biochemical; conditions: L. tarentolae extract, read-out: EC50 inhibition of eGFP protein synthesis
Method: Crystals of TbMetRS:Met were obtained by incubating TbMetRS with 10 mM methionine and 1 mM TCEP before crystallisation by sitting drop vapour diffusion against a reservoir solution containing 2.0-2.3 M Ammonium Sulphate, 0.2 M NaCl, 0.1 M Na Cacodylate pH 6.0-6.6. Single crystals grew after 3-4 days incubation at 18 °C. To obtain ternary TbMetRS:Met:Ligand complexes, TbMetRS:Met crystals were soaked for 10-30 seconds in a 10 μl drop consisting of 1 μl of ligand (20 mM in 20% DMSO), 4 μl reservoir solution and 5 μl glycerol. Crystals were flash frozen immediately in liquid nitrogen in preparation for data collection.
Diffraction data were measured at Diamond Light Source beamline I02. […]
Protein translation in a Leishmania cell extract was studied using a commercially available cell-free protein expression kit (Jena Bioscience). Reactions were carried out in black 384-well, small-volume plates (Greiner) in 10 µl reaction volumes containing 7 µl L. tarentolae cell extract, 1 µl eGFP DNA template and 2 µl nuclease free water (‘no DNA’ wells were included as negative controls). eGFP expression was monitored over time using a BMG PheraStar plate reader (Excitation 485 nm; […]
The effect of DDD806905 on mitochondrial protein synthesis was determined by BioDuro using the MitoBiogenesisTM In-Cell ELISA Kit (Abcam). […] In the assay the levels of SDH-A and COX-1 are measured in H9C2 cells. […]

[2] = system: L. donovani promastigotes; experiment: Leishmania promastigote viability assay; type: cell-based, Leishmania donovani; conditions: Leishmania donovani
Method: After suitable sample preparation, the
In vivo Leishmaniasis Animal Model […]
administered twice daily over the same interval.
Parasite load is expressed in Leishman-
Knock-out and overexpressor generation
Leishmania Promastigote Assay
Serum shift experiments were […]
carried out as described above using 5%, 10% and 20% FBS in the media. To examine the effect of the methionine concentration on the potency of DDD806905 parasites were grown in the presence of drug and in the presence (or absence) of 20-fold excess methionine (0.3 g/l). IC50 curve fitting was undertaken in GraFit version 6.0 (Erithacus Software) using a four-parameter logistic dose-response curve (equation 6), with s the slope.
Leishmania Axenic Amastigote Assay
The Leishmania axenic amastigote assay was performed using the method published in Nühs et al 15.
Leishmania Intracellular Amastigote Assay
The intramacrophage Leishmania assay was performed using a modified version of the method described in De Rycker et al 16. […]
amphotericin B was included. Controls were as follows: columns 11 and 12: DMSO, columns 23 and 24: amphotericin B (final concentration 2 µM). 350 nl of compound was pre-dispensed into 384-well sterile intermediary plates. To the intermediary plates, 35 µl of THP-1 media was added and plates were shaken for >5 min to ensure complete mixing. THP-1 cells (8,000 per well, 50 µl) were plated into black clear-bottom 384-well plates (Corning) in presence of 20 nM phorbol 12-myristate 13-

## Cl.Cl.O=c1nc(NCCCNCc2cc3c(Cl)cc(Cl)cc3[nH]2)[nH]c2ccccc12 [DDD806905, 2-((3-(((4,6-dichloro-1H-indol-2-yl)methyl)amino)propyl)amino)quinazolin-4(1H)-one dihydrochloride]
[1]; additional 1.5 mM methionine
  EC50: 12000 nM
[1]; no additional methionine
  EC50: 2200 nM
[2]; 10% serum, read-out: promastigote EC50
  EC50: 270 nM
[2]; Supplementary Table 1, read-out: Leishmania Promastigote EC50
  EC50: 440 nM
[2]; absence of excess methionine, read-out: promastigote EC50
  EC50: 460 nM
[2]; extrapolated to 100% serum, read-out: predicted promastigote EC50
  EC50: 1750 nM
[2]; extrapolated to no serum, read-out: predicted promastigote EC50
  EC50: 120 nM
[2]; presence of excess methionine (2 mM), read-out: promastigote EC50
  EC50: 1900 nM

Source: paper PMC5663395, “Chemical Validation of Methionyl-tRNA Synthetase as a Druggable Target in Leishmania donovani” (ACS Infectious Diseases, 2017)
